Measured values taken from the supplement of paper PMC10331698.
± gives the standard deviation of the averaged measurements.

How the values were obtained:
Assay in all cases: level (log10 ratio to DMSO vehicle control); higher = higher biomarker level / cell amount than vehicle control
[1] = compound: OCC(F)(F)C(F)(F)C(F)(F)C(F)(F)C(F)(F)C(F)(F)F [6:1 Fluorotelomer alcohol]; conditions: in DMSO
Protocol: (§1)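 BioMAP Diversity Plus panel of 12 human primary cell co-culture systems (3C, 4H, LPS, SAg, BT, BF4T, BE3C, CASM3C, HDF3CGF, KF3CT, MyoF, Mphg). Compounds were added 1 h before stimulation and left for 24 h (MyoF 48 h; BT 72 h for soluble read-outs or 6 d for IgG). Biomarkers were read by ELISA, cytotoxicity by SRB, PBMC viability and proliferation by Alamar Blue. Each well value was divided by the mean of 8 DMSO control wells on the same plate and log10 transformed; duplicate blinded samples were tested at 4 concentrations.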

[2] = compound: OCC(F)(F)C(F)(F)C(F)(F)C(F)(F)C(F)(F)C(F)(F)C(F)(F)C(F)(F)CO [1H,1H,10H,10H-Perfluorodecane-1,10-diol]; conditions: in DMSO
Protocol: as §1

[3] = compound: O=S(=O)(O)CCC(F)(F)C(F)(F)C(F)(F)C(F)(F)F [4:2 Fluorotelomer sulfonic acid]; conditions: in DMSO
Protocol: as §1

[4] = compound: O=C(O)C(F)(F)C(F)(F)C(=O)O [Tetrafluorosuccinic acid]; conditions: in DMSO
Protocol: as §1

[5] = compound: C=C(C)C(=O)OCC(F)(F)C(F)(F)C(F)(F)F [2,2,3,3,4,4,4-Heptafluorobutyl methacrylate]; conditions: in DMSO
Protocol: as §1

[6] = compound: O=S(=O)(OCC(F)(F)F)C(F)(F)C(F)(F)C(F)(F)C(F)(F)F [2,2,2-Trifluoroethyl perfluorobutanesulfonate]; conditions: in DMSO
Protocol: as §1

[7] = compound: OCCC(F)(F)C(F)(F)C(F)(F)C(F)(F)C(F)(F)C(F)(F)C(F)(F)C(F)(F)F [8:2 Fluorotelomer alcohol]; conditions: 6700 nM; in DMSO
Protocol: as §1

| Test System | level (log10) ([1]; 6700 nM) | level (log10) ([1]; 20000 nM) | level (log10) ([1]; 60000 nM) | level (log10) ([2]; 6700 nM) | level (log10) ([2]; 20000 nM) | level (log10) ([2]; 60000 nM) | level (log10) ([3]; 6700 nM) | level (log10) ([3]; 20000 nM) | level (log10) ([3]; 60000 nM) | level (log10) ([4]; 6700 nM) | level (log10) ([4]; 20000 nM) | level (log10) ([4]; 60000 nM) | level (log10) ([5]; 6700 nM) | level (log10) ([5]; 20000 nM) | level (log10) ([5]; 60000 nM) | level (log10) ([6]; 6700 nM) | level (log10) ([6]; 20000 nM) | level (log10) ([6]; 60000 nM) | level (log10) [7] |
| --- | --- | --- | --- | --- | --- | --- | --- | --- | --- | --- | --- | --- | --- | --- | --- | --- | --- | --- | --- |
| 3C:CD106/VCAM-1 | 0.006 ± 0.0071 | 0.013 ± 0.013 | 0.011 ± 0.021 | -0.023 ± 0.0071 | -0.0225 ± 0.0021 | -0.052 | -0.022 ± 0.028 | 0.006 ± 0.024 | 0.005 ± 0.021 | -0.015 ± 0.014 | -0.015 ± 0.011 | -0.0105 ± 0.018 | 0.0145 ± 0.029 | 0.007 ± 0.016 | 0.017 ± 0.011 | -0.0165 ± 0.012 | -0.016 ± 0.0085 | 0.0015 ± 0.0021 | -0.035 ± 0.061 |
| MyoF:bFGF | -0.001 ± 0.0014 | 0.0005 ± 0.013 | 0.006 ± 0.011 | -0.007 ± 0.011 | 0.0005 ± 0.00071 | 0.005 | -0.001 ± 0.0071 | 0.0025 ± 0.028 | 0.0055 ± 0.022 | 0.0005 ± 0.0021 | 0.0095 ± 0.0078 | -0.0045 ± 0.029 | 0.007 ± 0.0099 | -0.01 ± 0.0085 | 0.007 ± 0.024 | -0.015 ± 0.0042 | -0.0015 ± 0.03 | -0.0195 ± 0.00071 | 0.002 ± 0.018 |
| HDF3CGF:SRB | 0.0015 ± 0.067 | -0.003 ± 0.025 | -0.139 ± 0.13 | -0.0485 ± 0.021 | -0.0255 ± 0.091 | -0.224 | -0.0365 ± 0.037 | -0.0075 ± 0.033 | 0.033 ± 0.058 | -0.0125 ± 0.011 | -0.013 ± 0.03 | 0.007 ± 0.044 | 0.007 ± 0.02 | -0.002 ± 0.0099 | 0.017 ± 0.0085 | 0.0205 ± 0.012 | 0.0125 ± 0.029 | 0.0325 ± 0.035 | -0.0335 ± 0.035 |
| MyoF:SRB | 0.003 ± 0.02 | 0.0015 ± 0.016 | -0.089 ± 0.13 | -0.012 | -0.019 ± 0.017 | -0.098 | -0.004 ± 0.0071 | -0.0045 ± 0.0021 | -0.004 ± 0.0028 | -0.0035 ± 0.0035 | -0.0135 ± 0.0021 | -0.01 ± 0.0014 | -0.005 ± 0.016 | -0.0005 ± 0.0021 | 0.0035 ± 0.011 | 0.0005 ± 0.011 | -0.009 ± 0.014 | -0.0255 ± 0.021 | -0.0005 ± 0.015 |
| 3C:CCL2/MCP-1 | -0.005 ± 0.011 | -0.005 ± 0.0014 | -0.007 ± 0.033 | -0.0015 ± 0.005 | 0.0055 ± 0.00071 | 0.018 | 0.0035 ± 0.023 | 0.003 ± 0.054 | 0.0065 ± 0.025 | -0.0065 ± 0.016 | -0.006 ± 0.0028 | 0.0005 ± 0.0064 | -0.0015 ± 0.0035 | -0.009 ± 0.0071 | 0.01 ± 0.027 | 0.0095 ± 0.011 | 0.004 ± 0.035 | 0.023 ± 0.057 | -0.0025 ± 0.0021 |
| 3C:CD62E/E-Selectin | -0.001 ± 0.0099 | -0.011 ± 0.0085 | 0.0125 ± 0.0078 | -0.0065 ± 0.005 | -0.0275 ± 0.0092 | -0.082 | -0.019 ± 0.011 | -0.0035 ± 0.019 | 0.0045 ± 0.018 | -0.0015 ± 0.016 | -0.0155 ± 0.0064 | -0.01 ± 0.0099 | -0.005 ± 0.011 | -0.014 ± 0.0042 | -0.0015 ± 0.013 | -0.0085 ± 0.013 | -0.0385 ± 0.021 | -0.0045 ± 0.016 | -0.016 ± 0.0099 |
| MyoF:MMP-1 | -0.018 ± 0.014 | -0.0295 ± 0.0078 | 0.15 ± 0.26 | -0.0415 ± 0.013 | -0.0275 ± 0.012 | 0.284 | -0.022 | -0.05 ± 0.0057 | -0.005 ± 0.047 | -0.006 ± 0.023 | 0.0025 ± 0.0021 | 0.0535 ± 0.059 | -0.0215 ± 0.023 | -0.0075 ± 0.0092 | 0.0165 ± 0.047 | 0.018 ± 0.16 | 0.043 ± 0.16 | 0.0695 ± 0.12 | -0.0175 ± 0.011 |
| CASM3C:CD142/Tissue Factor | 0.009 ± 0.017 | 0.0035 ± 0.0092 | -0.0315 ± 0.015 | -0.0275 ± 0.015 | -0.02 ± 0.0042 | -0.033 | -0.0115 ± 0.018 | 0.0115 ± 0.015 | 0.0095 ± 0.03 | -0.0165 ± 0.026 | -0.0345 ± 0.00071 | -0.025 ± 0.024 | -0.006 ± 0.021 | 0 ± 0.038 | 0.0045 ± 0.022 | 0.013 ± 0.011 | 0.0485 ± 0.0021 | 0.133 ± 0.052 | -0.011 ± 0.014 |
| MyoF:alpha-SM Actin | 0 ± 0.0057 | -0.006 ± 0.0099 | 0.011 ± 0.054 | -0.0025 ± 0.019 | -0.041 ± 0.03 | -0.395 | 0 ± 0.052 | 0.022 ± 0.0028 | 0.035 ± 0.0028 | 0.0065 ± 0.025 | -0.0165 ± 0.015 | -0.0275 ± 0.037 | -0.0195 ± 0.0078 | -0.0025 ± 0.0035 | -0.002 ± 0.011 | -0.0265 ± 0.025 | -0.0175 ± 0.047 | -0.0235 ± 0.005 | -0.021 ± 0.024 |
| CASM3C:LDLR | 0.0045 ± 0.016 | 0.014 ± 0.017 | -0.0585 ± 0.022 | -0.016 ± 0.035 | 0.0035 ± 0.016 | -0.048 | -0.0145 ± 0.012 | 0.0015 ± 0.0021 | -0.0035 ± 0.025 | 0.0005 ± 0.0035 | -0.02 ± 0.014 | 0.0015 ± 0.019 | -0.0045 ± 0.036 | 0.006 ± 0.0042 | 0.0055 ± 0.0078 | -0.019 ± 0.062 | -0.0255 ± 0.013 | -0.0135 ± 0.0035 | -0.0045 ± 0.0078 |
| HDF3CGF:TIMP-2 | 0.004 ± 0.0099 | -0.0195 ± 0.0064 | -0.0905 ± 0.17 | -0.006 ± 0.014 | -0.0105 ± 0.00071 | -0.095 | -0.026 ± 0.0028 | -0.0335 ± 0.016 | -0.009 ± 0.051 | -0.052 ± 0.042 | -0.069 ± 0.025 | -0.1 ± 0.018 | -0.008 ± 0.0014 | -0.0105 ± 0.022 | -0.0245 ± 0.019 | 0.0105 ± 0.013 | 0.0375 ± 0.021 | 0.06 ± 0.0014 | -0.0475 ± 0.079 |
| MyoF:Collagen I | 0 ± 0.021 | -0.0005 ± 0.012 | 0.0015 ± 0.03 | -0.0105 ± 0.015 | -0.0275 ± 0.013 | -0.109 | 0.004 ± 0.013 | -0.0155 ± 0.015 | 0.018 | 0.0045 ± 0.0021 | 0.007 ± 0.0014 | 0.0005 ± 0.012 | 0.0055 ± 0.013 | 0.001 ± 0.021 | 0.018 ± 0.027 | -0.0215 ± 0.0092 | -0.0045 ± 0.03 | -0.043 ± 0.023 | -0.0025 ± 0.021 |
| MyoF:CXCL8/IL-8 | -0.0055 ± 0.025 | -0.0095 ± 0.037 | -0.005 ± 0.025 | -0.0285 ± 0.0021 | -0.033 ± 0.013 | 0.025 | 0 ± 0.0028 | 0.003 ± 0.02 | -0.0055 ± 0.018 | -0.013 ± 0.0099 | -0.019 ± 0.014 | 0.006 ± 0.025 | -0.0125 ± 0.033 | -0.017 ± 0.024 | -0.014 ± 0.041 | -0.003 ± 0.064 | 0.0405 ± 0.057 | 0.013 ± 0.09 | 0.023 ± 0.0014 |
| HDF3CGF:TIMP-1 | -0.009 ± 0.0085 | -0.022 | -0.014 ± 0.027 | 0.0025 ± 0.0078 | 0.0135 ± 0.0092 | -0.307 | -0.0045 ± 0.047 | -0.0015 ± 0.00071 | 0.0035 ± 0.084 | -0.05 ± 0.023 | -0.017 ± 0.0042 | -0.0155 ± 0.035 | -0.0075 ± 0.0078 | -0.007 ± 0.024 | -0.019 ± 0.03 | -0.0095 ± 0.042 | 0.039 ± 0.0042 | 0.0325 ± 0.021 | -0.013 ± 0.0042 |
| KF3CT:CCL2/MCP-1 | 0.012 ± 0.0014 | 0.009 ± 0.0099 | -0.007 ± 0.0085 | -0.028 ± 0.021 | -0.024 ± 0.016 | -0.272 | -0.0205 ± 0.012 | -0.0125 ± 0.012 | -0.0015 ± 0.025 | -0.05 ± 0.0085 | -0.042 ± 0.021 | -0.0065 ± 0.07 | 0.026 ± 0.014 | 0.008 ± 0.0085 | -0.0155 ± 0.0035 | -0.018 ± 0.057 | -0.0485 ± 0.044 | -0.022 ± 0.014 | -0.0165 ± 0.025 |
